# Patent US12245590B2, “Method for controlling weeds” (SUMITOMO CHEMICAL COMPANY, LIMITED, priority 2019, dated 2025)
# Legend:
# [1] = tested on: Palmer amaranth, waterhemp, kochia, common ragweed or marestail; assay: Pot test, foliar spot treatment of weed patches before seeding the crop (Example 1); assay type: in vivo; conditions: spot foliar treatment of 20% of pot area, 50 g/ha, 150 L/ha, 1% Agri-Dex; weeds 14 days old; soybean, corn or cotton seeded immediately after; 21 days in greenhouse
# Method: (§1) The evaluation of the herbicidal efficacy is classified into 0 to 100, where the numeral “0” indicates no or little difference in the state of emergence or growth of weeds under test at the time of examination as compared with untreated weeds, and the numeral “100” indicates the complete death of weeds under test or the complete inhibition of emergence or growth of weeds under test.
# A pot is filled with a soil, and then Palmer amaranth, waterhemp, kochia, common ragweed or marestail is seeded at a corner portion of the soil. The weeds are grown in a greenhouse for 14 days, and a section including vegetation patches of weeds (20% of the area on the pot) is subjected to foliar treatment with a spray liquid of saflufenacil (prepared by diluting a commercially available formulation of saflufenacil (aqueous suspension concentrate containing 29.74% of saflufenacil, Sharpen, manufactured by BASF) with water containing 1% (w/v) of adjuvant Agri-Dex) at 50 g/ha (as an application amount in a spot-treated section) and a liquid amount of 150 L/ha (as a liquid amount in a spot-treated section). Immediately thereafter, soybean (Genuity Roundup Ready 2 Xtend), corn (Genuity Roundup Ready 2), or cotton (Genuity Roundup Ready 2 Xtend) is seeded in a corner portion different from vegetation patches of weeds in the soil, and grown in the greenhouse for 21 days. This is defined as the invention plot.
# [2] = tested on: Palmer amaranth, waterhemp, kochia, common ragweed or marestail; assay: Pot test, foliar spot treatment of weed patches with the crop growing (Example 2); assay type: in vivo; conditions: spot foliar treatment of 20% of pot area, 50 g/ha, 150 L/ha, 1% Agri-Dex; weeds and soybean, corn or cotton 14 days old; 21 days in greenhouse
# Method: as §1
# A pot is filled with soil, and then Palmer amaranth, waterhemp, kochia, common ragweed, or marestail is seeded at a corner portion of the soil, and soybean (Genuity Roundup Ready 2 Xtend), corn (Genuity Roundup Ready 2), or cotton (Genuity Roundup Ready 2 Xtend) is seeded at another corner portion of the soil. The weeds and crops are grown in a greenhouse for 14 days, and a section including vegetation patches of weeds (20% of the area on the pot) is subjected to foliar treatment with a spray liquid of saflufenacil (prepared by diluting Sharpen with water containing 1% (w/v) of adjuvant Agri-Dex) at 50 g/ha (as an application amount in a spot-treated section) and a liquid amount of 150 L/ha (as a liquid amount in a spot-treated section). Thereafter, the weeds and crops are grown in the greenhouse for 21 days. This is defined as the invention plot.
smiles,measurement,setting,value
CC(C)N(C)S(=O)(=O)NC(=O)c1cc(-n2c(=O)cc(C(F)(F)F)n(C)c2=O)c(F)cc1Cl [saflufenacil],weed control effect of the invention plot compared with comparative plots (no crop seeded; uniform blanket treatment),[1],excellent weed control effect
same,weed control effect of the invention plot compared with comparative plots (no crop seeded; uniform blanket treatment),[2],excellent weed control effect
